The results in this text go back to ChEMBL document CHEMBL1201862, “PubChem BioAssay data set” (2004).

Among the test systems are CAKI-1; SK-OV-3; LOX IMVI; NCI-H226; UO-31; SF-268; NCI-H23; SK-MEL-5; SN12C; A549; KM12; HCT-116; NCI-H460; DU-145; COLO 205; SNB-19; HCT-15; TK-10; OVCAR-4; OVCAR-5.
Common to all, as to assay: DTP human tumour cell line panel, 48 h

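48-hour exposure; five concentrations; linearly interpolated endpoints. GI50: concentration for 50% inhibition of growth.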 The source made the active and inactive calls. Cut-off read from the data, not from the text of the source: active = GI50 up to about 1.1 µM and inactive = higher.

For `COc1cc2c(c(OC)c1)C(C)=NC(C)C2` (centres undefined), the GI50 in the assay on CAKI-1, with SK-OV-3, in the assay on LOX IMVI, with NCI-H226, with UO-31 and with SF-268 was > 100 µM (inactive) each time. For the same compound, the GI50 was > 100 µM (inactive) in the assay on NCI-H23; > 100 µM (inactive) with SK-MEL-5; > 100 µM (inactive) with SN12C; > 100 µM (inactive) in the assay with A549; > 100 µM (inactive) in the assay with KM12; 51.2 µM (inactive) in the assay with HCT-116. The GI50 was > 100 µM (inactive) in the assay on NCI-H460; > 100 µM (inactive) with DU-145; > 100 µM (inactive) with COLO 205; > 100 µM (inactive) with SNB-19; > 100 µM with HCT-15; > 100 µM (inactive) in the assay with TK-10.
As to `CC(C)=NN/C(=N\c1ccc(Cl)cc1)NS(=O)(=O)c1cc2ccccc2s1`, the GI50 in the assay on CAKI-1 was 97.9 µM (inactive); in the assay on LOX IMVI, 77.3 µM (inactive); in the assay on NCI-H226, > 100 µM (inactive); with UO-31 it was 30.5 µM (inactive); in the assay with SF-268, 76.7 µM (inactive); in the assay on NCI-H23 it was 76 µM (inactive). For the same compound, the GI50 in the assay on OVCAR-4 was 46.9 µM (inactive); with SK-MEL-5, > 100 µM (inactive); with SN12C it was 50.7 µM (inactive); in the assay on A549 it was 44 µM (inactive); in the assay with KM12, 90.4 µM (inactive); in the assay on HCT-116, 40.4 µM (inactive). The GI50 is > 100 µM (inactive) with NCI-H460; > 100 µM (inactive) in the assay on DU-145; 46.5 µM (inactive) with COLO 205; > 100 µM (inactive) in the assay with SNB-19; 71.8 µM with HCT-15; 87.9 µM (inactive) in the assay on TK-10. In the assay with OVCAR-5, the GI50 is 32.7 µM (inactive).
As to `COc1ccc(/C=N/Nc2nnc3c(n2)c2ccccc2c2nn(-c4ccccc4Cl)nc23)cc1`, the GI50 in the assay with CAKI-1, in the assay on SK-OV-3, in the assay with LOX IMVI, with NCI-H226, in the assay on UO-31 and in the assay on SF-268 was > 100 µM (inactive) throughout. The GI50 in the assay with NCI-H23, in the assay with OVCAR-4, in the assay with SK-MEL-5, with SN12C, in the assay on A549 and in the assay with KM12 was > 100 µM (inactive) throughout. Further, the GI50 is > 100 µM (inactive) in the assay on HCT-116; > 100 µM (inactive) in the assay on DU-145; > 100 µM (inactive) in the assay with COLO 205; > 100 µM (inactive) in the assay on SNB-19; > 100 µM in the assay on HCT-15; > 100 µM (inactive) with TK-10. The GI50 in the assay with OVCAR-5 was > 100 µM (inactive).
Turning to `Cc1ccc(/C=C2\CCCc3ccccc3C2=O)cc1`, the GI50 with CAKI-1 was 27.2 µM (inactive); in the assay with SK-OV-3, 13.2 µM (inactive); in the assay with LOX IMVI it was 14.9 µM (inactive); with NCI-H226, 6.46 µM (inactive); in the assay with UO-31 it was 29.6 µM (inactive); with SF-268 it was 11.2 µM (inactive). Besides, the GI50 in the assay on NCI-H23 is 9.2 µM (inactive); in the assay on OVCAR-4, 25.9 µM (inactive); in the assay on SN12C, 11.7 µM (inactive); in the assay with A549, 5.86 µM (inactive); in the assay on KM12, 4.11 µM (inactive); in the assay with HCT-116, 13.7 µM (inactive). Also, the GI50 in the assay with NCI-H460 is 7.23 µM (inactive); in the assay with DU-145 it was 22.2 µM (inactive); in the assay with COLO 205, 4.94 µM (inactive); in the assay on SNB-19, 19.5 µM (inactive); in the assay with HCT-15, 6.64 µM; with TK-10 it was 25.1 µM (inactive). Also, in the assay with OVCAR-5, the GI50 is 10.3 µM (inactive).
In the case of `O=C(O)CCC(C(=O)O)N1C(=O)C2C3CCC(C3)C2C1=O` (centres undefined), the GI50 with CAKI-1, with SK-OV-3, with LOX IMVI, with NCI-H226, with SF-268 and with NCI-H23 was > 100 µM (inactive) each time. Besides, the GI50 in the assay with OVCAR-4, with SK-MEL-5, in the assay with SN12C, in the assay on A549, in the assay with KM12 and in the assay with HCT-116 was > 100 µM (inactive) each time. The GI50 with NCI-H460 is > 100 µM (inactive); in the assay on DU-145 it was > 100 µM (inactive); with COLO 205, > 100 µM (inactive); with SNB-19 it was > 100 µM (inactive); in the assay on HCT-15, > 100 µM; in the assay on TK-10, > 100 µM (inactive). Moreover, the GI50 in the assay with OVCAR-5 was > 100 µM (inactive).
Turning to `Nc1cc(N2CCOCC2)nc(=O)n1-c1ccc(Cl)cc1`, the GI50 in the assay with CAKI-1, in the assay on SK-OV-3, with LOX IMVI, with NCI-H226, in the assay on UO-31 and in the assay on NCI-H23 was > 100 µM (inactive) each time. Further, the GI50 in the assay with SK-MEL-5, in the assay on SN12C, in the assay with A549, in the assay on KM12, in the assay on HCT-116 and in the assay on NCI-H460 was > 100 µM (inactive) throughout. For the same compound, the GI50 in the assay on DU-145 is > 100 µM (inactive); with COLO 205 it was > 100 µM (inactive); with SNB-19 it was > 100 µM (inactive); in the assay with HCT-15 it was > 100 µM; with OVCAR-5 it was > 100 µM (inactive).
On to `O=C1/C(=N\NC(=S)Nc2ccc(Cl)cc2)c2cc([N+](=O)[O-])ccc2N1CN1CCOCC1`, for which the GI50 with CAKI-1 was 3.52 µM (inactive); in the assay on SK-OV-3, 12.6 µM (inactive); with LOX IMVI it was 10.1 µM (inactive); in the assay with NCI-H226, 4.81 µM (inactive); in the assay on UO-31, 3.78 µM (inactive); with SF-268, 4.39 µM (inactive). The GI50 in the assay with NCI-H23 was 2.08 µM (inactive); in the assay with OVCAR-4, 10 µM (inactive); in the assay with SK-MEL-5 it was 4 µM (inactive); in the assay with SN12C it was 4.12 µM (inactive); with A549, 8.22 µM (inactive); in the assay on KM12 it was 11.7 µM (inactive). For the same compound, the GI50 in the assay on HCT-116 is 4.12 µM (inactive); with NCI-H460, 7.78 µM (inactive); in the assay on DU-145, 10.5 µM (inactive); in the assay with COLO 205, 13.2 µM (inactive); in the assay with SNB-19 it was 7.89 µM (inactive); in the assay on HCT-15, 3.36 µM. Also, in the assay with TK-10, the GI50 is 12.2 µM (inactive).
For the compound `CC(=O)OCC(OC(C)=O)C1C[C@H]2O[C@@H]3[C@H](C[C@H]2O1)O[C@@]1(C[C@@H]3C)C[C@H](C)[C@@H]2O[C@]3(C[C@@H]2O1)C[C@H]1O[C@H]2[C@H](C)[C@H]4OC(=O)CC5CC[C@H]6OC7[C@H]8O[C@]9(CC[C@H]%10CC(O)(CO)[C@H](CC[C@H]%11C[C@@H](C)C(O)(CO)C(C[C@@H]4O[C@H]2C[C@H]1O3)O%11)O%10)CC8O[C@@H]7[C@@H](O9)[C@H]6O5` (some centres undefined), the concentration for 50% growth inhibition (GI50) in the assay with CAKI-1 was 0.0127 µM (active); in the assay on SK-OV-3, 0.0284 µM (active); in the assay on LOX IMVI, 0.0146 µM (active); in the assay on NCI-H226 it was 0.0122 µM (active); in the assay with UO-31 it was 0.0226 µM (active); in the assay on SF-268, 0.00986 µM (active). Besides, the GI50 with NCI-H23 was 0.00496 µM (active); in the assay with SK-MEL-5, 0.00141 µM (active); with SN12C, 0.0227 µM (active); in the assay with A549 it was 0.00643 µM (active); in the assay on KM12 it was 0.00415 µM (active); in the assay with HCT-116, 0.00438 µM (active). Also, the GI50 is 0.00371 µM (active) with NCI-H460; 0.00386 µM (active) in the assay on DU-145; 0.00445 µM (active) in the assay with COLO 205; 0.0194 µM (active) in the assay on SNB-19; 0.00486 µM with HCT-15; > 0.27 µM (active) in the assay on OVCAR-5.
As for `NC1(c2cc3ccccc3s2)CCCCCC1`, the GI50 is 13.8 µM (inactive) with CAKI-1; 17.1 µM (inactive) in the assay with SK-OV-3; 17.9 µM (inactive) with LOX IMVI; 19.8 µM (inactive) in the assay on NCI-H226; 14.4 µM (inactive) with UO-31; 17.3 µM (inactive) with NCI-H23. Moreover, the GI50 in the assay with OVCAR-4 was 14.4 µM (inactive); in the assay with SK-MEL-5, 15.1 µM (inactive); in the assay on SN12C, 16.8 µM (inactive); in the assay on A549, 18.1 µM (inactive); with KM12, 16 µM (inactive); in the assay on HCT-116, 16.1 µM (inactive). The GI50 is 15 µM (inactive) with NCI-H460; 17.2 µM (inactive) in the assay on DU-145; 12.6 µM (inactive) in the assay with COLO 205; 18.2 µM (inactive) in the assay with SNB-19; 17.1 µM with HCT-15; 15.4 µM (inactive) with TK-10. In addition, the GI50 in the assay on OVCAR-5 was 15 µM (inactive).
In the case of `COc1ccc(C2=Nn3c(C)nnc3S/C2=C\c2ccc(-c3ccc([N+](=O)[O-])cc3)o2)cc1`, the GI50 is 14.5 µM (inactive) in the assay with CAKI-1; 64.1 µM (inactive) in the assay on SK-OV-3; 6.03 µM (inactive) in the assay with LOX IMVI; 27.2 µM (inactive) with NCI-H226; 15.1 µM (inactive) in the assay with UO-31; 12.3 µM (inactive) with SF-268. Moreover, the GI50 in the assay on NCI-H23 was 13.9 µM (inactive); in the assay on OVCAR-4 it was 22.2 µM (inactive); in the assay on SK-MEL-5, 19 µM (inactive); in the assay on SN12C it was 11 µM (inactive); in the assay on A549, 20 µM (inactive); in the assay with KM12, 16.1 µM (inactive). For the same compound, the GI50 was 11 µM (inactive) with HCT-116; 14.9 µM (inactive) in the assay with NCI-H460; 12.2 µM (inactive) in the assay on DU-145; 15.6 µM (inactive) in the assay with SNB-19; 10.9 µM with HCT-15; 13.7 µM (inactive) in the assay on TK-10. For the same compound, the GI50 in the assay on OVCAR-5 is 18.4 µM (inactive).
In the case of `N=c1oc2ccc3ccccc3c2cc1C(N)=O`, the GI50 in the assay with CAKI-1 was 43.5 µM (inactive); in the assay on SK-OV-3 it was 96.2 µM (inactive); in the assay with LOX IMVI it was 31.2 µM (inactive); in the assay on NCI-H226, 15.3 µM (inactive); with SF-268, 31.4 µM (inactive); in the assay with NCI-H23, 48.6 µM (inactive). The GI50 with OVCAR-4 is 58.6 µM (inactive); in the assay on SK-MEL-5, 46.1 µM (inactive); in the assay on SN12C, 39.8 µM (inactive); in the assay with A549, 64.6 µM (inactive); in the assay on KM12 it was 16.7 µM (inactive); in the assay with HCT-116, 36.9 µM (inactive). Moreover, the GI50 in the assay with NCI-H460 is 46.3 µM (inactive); in the assay with DU-145 it was 71 µM (inactive); in the assay with COLO 205, 48.6 µM (inactive); with SNB-19 it was 25.1 µM (inactive); with HCT-15 it was 58.1 µM; in the assay with OVCAR-5, > 100 µM (inactive).
